Laboratory results as given in publication PMC7601700, “Interaction of Cytochrome C Oxidase with Steroid Hormones” (Cells, 2020).
Entries after “also recorded” stand apart in the source; their conditions may differ. Like-named read-outs stand apart in the source and are kept apart here.

Assays:
[1] = biological target: T1, cytochrome c oxidase (CcO) purified from bovine heart (Bos taurus, UniProt P00396+P68530); set-up: method as in the paper is submitted for publication; conditions: from study on inhibition of CcO by Triton X-100; ref the paper is submitted for publication; read-out: affinity between DM and CcO, Kc; cited from earlier work
T1 construct: Cytochrome oxidase was isolated from bovine heart mitochondria; from tissue; host or cells: bovine heart mitochondria

[2] = biological target: T1, cytochrome c oxidase (CcO) purified from bovine heart; experiment: Cytochrome oxidase activity assay (oxygen uptake, Clark-type electrode; ascorbate + TMPD + cytochrome c); format: biochemical; conditions: for Kd: X-axis intercept; for Inhibition of CcO Oxidase Activity, DM Influence: effect of dodecyl-maltoside on the inhibition; for slope tangent of Ki(app) vs [DM], ratio Ki:Kc: ratio of the affinities of hormone and DM
Protocol: Cytochrome oxidase was isolated from bovine heart mitochondria using the modified method of Fowler et al. as described previously by Vygodina et al..
Cytochrome oxidase activity assay. Oxygen uptake rates were measured with a covered Clark-type electrode by an Oxytherm instrument (Hansatech, UK) in a thermostatted cell at 25 °C with permanent stirring. The assays were performed in a basic medium containing 50 mM Hepes, 50 mM Tris, pH 7.5 and 0.1 mM EDTA. The medium was also supplemented with indicated concentrations of DM which are given throughout the text in mM (0.05% ≈ 1.0 mM DM). 5 mM ascorbate, 0.1 mM TMPD and 10 µM cytochrome c were used as the oxidation substrate. Other details are indicated in the legends to figures.
In order to determine Ki(app), the titration curves in Figure 2B were approximated by Equation (2) that connects normalized activity, v, with testosterone concentration, [I].

[3] = biological target: T1, cytochrome c oxidase (CcO) purified from bovine heart; experiment: Peroxidase activity of CcO (o-dianisidine peroxidation by H2O2); format: biochemical; conditions: for Inhibition of CcO Peroxidase Activity: 0.2 mM o-dianisidine, 4 mM H2O2, 0.6 µM CcO
Protocol: Peroxidase activity of CcO was assayed as described by Vygodina and Konstantinov by following spectrophotometrically peroxidation of 0.2 mM o-dianisidine at 432 nm minus 580 nm in a dual-wavelength SLM Aminco DW-2000 spectrophotometer (USA). The reaction mixture contained 0.6 µM CcO in the aerobic basic medium supplemented with different concentrations of DM. No o-dianisidine oxidase activity was observed and the peroxidase reaction was initiated by addition of 4 mM H2O2.

CcO from R. sphaeroides = tested on: CcO from R. sphaeroides; set-up: method as in PMID 24073649; conditions: cited from earlier work
human endothelial cells = tested on: human endothelial cells; set-up: method as in PMID 17267145; conditions: read-out: IC50% for inhibition of cell growth; cited from earlier work
[4] = biological target: T2, cytochrome c oxidase (CcO) purified from bovine heart, heme a3 (Bos taurus, UniProt P00396+P68530); experiment: Absorption spectra of CcO (hormone-induced difference spectra); format: binding; conditions: for Spectral Response Induced in Oxidized CcO: air-oxidized CcO; for Magnitude ε of the spectral shift induced in oxidized CcO: estradiol: 1 mM hormone, pH 8.0, 437 minus 415 nm
T2 construct: Cytochrome oxidase was isolated from bovine heart mitochondria; from tissue; host or cells: bovine heart mitochondria
Protocol: Absorption spectra of CcO were recorded with a Cary 300 Bio spectrophotometer (Varian, Palo Alto, CA, USA) in semi-micro cuvettes with blackened walls and 10 mm light pathway (Hellma, Müllheim, Germany), in the basic medium at pH 8.0 supplemented with indicated different additions. The kinetics of spectral changes was monitored in a dual-wavelength mode in a SLM Aminco DW-2000 spectrophotometer.

R. sphaeroides CcO = R. sphaeroides CcO (Cereibacter sphaeroides, UniProt P33517+Q03736); experiment: Preliminary experiments on inhibition of R. sphaeroides CcO; format: biochemical, Rhodobacter sphaeroides
Sequence of R. sphaeroides CcO (P33517 whole entry): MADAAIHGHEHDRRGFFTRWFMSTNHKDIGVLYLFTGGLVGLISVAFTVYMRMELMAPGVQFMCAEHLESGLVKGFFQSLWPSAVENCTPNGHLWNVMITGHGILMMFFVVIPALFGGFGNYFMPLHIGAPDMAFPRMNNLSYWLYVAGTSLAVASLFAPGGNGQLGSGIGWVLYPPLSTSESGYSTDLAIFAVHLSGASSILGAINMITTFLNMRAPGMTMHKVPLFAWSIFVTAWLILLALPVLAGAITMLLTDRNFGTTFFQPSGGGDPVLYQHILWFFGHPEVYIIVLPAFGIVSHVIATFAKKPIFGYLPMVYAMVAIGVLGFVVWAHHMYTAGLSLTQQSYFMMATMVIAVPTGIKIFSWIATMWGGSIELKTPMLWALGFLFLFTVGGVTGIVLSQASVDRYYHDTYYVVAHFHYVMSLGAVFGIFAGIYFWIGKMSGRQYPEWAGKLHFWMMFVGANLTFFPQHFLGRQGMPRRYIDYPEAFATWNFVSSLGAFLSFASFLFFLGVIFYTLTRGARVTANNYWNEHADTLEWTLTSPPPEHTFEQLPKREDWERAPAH
Sequence of R. sphaeroides CcO (Q03736 26-290 limits assumed): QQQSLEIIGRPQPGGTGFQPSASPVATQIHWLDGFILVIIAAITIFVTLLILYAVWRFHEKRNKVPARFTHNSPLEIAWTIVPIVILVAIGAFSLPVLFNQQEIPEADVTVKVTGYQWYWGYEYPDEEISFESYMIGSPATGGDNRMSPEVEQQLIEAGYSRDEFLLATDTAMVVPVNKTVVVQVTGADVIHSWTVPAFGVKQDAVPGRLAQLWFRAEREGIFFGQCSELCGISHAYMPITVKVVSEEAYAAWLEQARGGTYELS

[5] = biological target: T3, cytochrome c oxidase (CcO) purified from bovine heart, electron transfer from heme a to heme a3 (Bos taurus, UniProt P00396+P68530); experiment: Stopped-flow kinetics of CcO (heme a3) reduction by dithionite in the presence of RuAm; format: biochemical; conditions: for rate constant of heme a3 reduction, rapid phase: control 105.3; for rate constant of heme a3 reduction, slow phase: control 6.15
T3 construct: Cytochrome oxidase was isolated from bovine heart mitochondria; from tissue; host or cells: bovine heart mitochondria
Protocol: The kinetics of CcO reduction by dithionite in the presence of ruthenium hexammine (RuAm) was studied in an Applied Photophysics SX-20 stopped-flow spectrophotometer (UK) operated in a diode array mode, using a 20 µL cell with 1 cm optical pathway. The spectra in the 280–720 nm range were collected with a minimal interval of 1 ms. The assay medium contained 100 mM Hepes, 100 mM Tris, 50 mM KCl, 100 µM EGTA, catalase (2 µL/5 mL of the solution, indicated activity 23,000 units/mg protein), 0.05% DM, pH 8.0. Aerobic buffer with 6 µM CcO and 0.4 mM or 1 mM estradiol was rapidly mixed with the equal volume of the same buffer containing 40 mM sodium dithionite and 10 mM RuAm.
Procession of the stopped-flow data was performed with ProKineticist software provided with the Applied Photophysics SX-20 instrument, as well as by using Origin 7 and Origin 9 Microcal software.
We investigated effect of estradiol on the kinetics of electron transfer from heme a to heme a3. To this end, the kinetics of the hemes’ reduction by dithionite in the presence of RuAm was studied. In the experiment shown in Figure 4, 3 µM CcO was mixed rapidly with 20 mM dithionite and 5 mM RuAm and the reaction time course was followed by taking the spectra each ms in the 280–720 nm range in a rapid mixing diode array spectrophotometer.

[6] = true Ki extrapolated to zero dodecyl-maltoside (DM) from plot of Ki(app) vs [DM], 25 °C, pH 7.5, read-out: Inhibition of CcO Oxidase Activity, Ki (DM→0)

CCCCCCCCCCCCO[C@@H]1O[C@H](CO)[C@@H](O[C@H]2O[C@H](CO)[C@@H](O)[C@H](O)[C@H]2O)[C@H](O)[C@H]1O [DM, dodecyl-maltoside]
Kd [1]: 1200 µM
Kd ([2]; from plot of Ki(app) for estradiol vs [DM], read-out: dissociation constant for DM in the absence of estradiol, Kc): 1470 µM
Kd ([2]; from plot of Ki(app) for testosterone vs [DM], read-out: dissociation constant for DM in the absence of testosterone, Kc): 1300 µM

C[C@]12CC[C@H]3[C@@H](CCC4=CC(=O)CC[C@@]43C)[C@@H]1CC[C@@H]2O [Testosterone]
Inhibition of CcO Peroxidase Activity [3]: no
Inhibition of CcO Peroxidase Activity ([3]; listed as testosterone): do not inhibit
effect on the activity of CcO from R. sphaeroides (CcO from R. sphaeroides): did not reveal inhibition
IC50 (human endothelial cells): 100 µM
Ki [2]: 80 µM
maximal level of inhibition by excess testosterone ([2]; 1 mM DM): ca. 25%
inhibition of CcO oxidase activity ([2]; 4 mM testosterone, 1 mM DM): inhibits the activity but weakly
inhibition of CcO oxidase activity ([2]; 4 mM testosterone, 20 mM DM): strong inhibition; also recorded: does inhibit
Inhibition of CcO Oxidase Activity, DM Influence [2]: competes 1:1; increases maximal level of inhibition
inhibition of CcO oxidase activity directly observed (fold) ([2]; high concentrations of both testosterone and DM (Figure 2A, trace 1: 4 mM testosterone, 20 mM DM)): ≤ 3 fold
slope tangent of Ki(app) vs [DM], ratio Ki:Kc [2]: 0.05
inhibition at 100 µM ([2]; read-out: inhibition of bovine oxidase): 13%
Spectral Response Induced in Oxidized CcO [4]: no

CC1=C(/C=C/C(C)=C/C=C/C(C)=C/C(=O)O)C(C)(C)CCC1 [retinoic acid]
effect on the activity of CcO from R. sphaeroides (CcO from R. sphaeroides): strongly inhibited

C[C@]12CC[C@H]3[C@@H](CCC4=CC(O)CC[C@@H]43)[C@@H]1CCC2O (stereo partly shown) [norandrostenediol]
IC50 (human endothelial cells): 6000 µM

CC(C)CCC[C@@H](C)[C@H]1CC[C@H]2[C@@H]3CC=C4C[C@@H](O)CC[C@]4(C)[C@H]3CC[C@]12C [cholesterol]
inhibition of the oxidase activity of the bovine heart enzyme ([2]; unpublished data of the authors): does not inhibit

C[C@]12CCC(=O)C=C1CC[C@@H]1[C@@H]2CC[C@]2(C)C(=O)CC[C@@H]12 [androstenedione]
IC50 (human endothelial cells): 375 µM

C[C@]12CC[C@H]3[C@@H](CCC4=CC(=O)CC[C@@H]43)[C@@H]1CC[C@@H]2O [nandrolone]
IC50 (human endothelial cells): 9 µM

C[C@]12CC[C@H](O)CC1=CC[C@@H]1[C@@H]2CC[C@]2(C)C(=O)CC[C@@H]12 [Dehydroepiandrosterone (DHEA), Dehydroepiandrosterone]
Inhibition of CcO Peroxidase Activity [3]: no
Ki [2]: 110 µM
Inhibition of CcO Oxidase Activity, DM Influence [2]: competes 1:1

C=C1CC[C@H](O)C/C1=C/C=C1\CCC[C@]2(C)[C@@H]([C@H](C)CCCC(C)C)CC[C@@H]12 [Cholecalciferol (vitamine D3), Cholecalciferol]
Inhibition of CcO Peroxidase Activity [3]: yes
Ki ([3]; read-out: Ki for inhibition of CcO peroxidase activity): ~200 µM
Inhibition of CcO Oxidase Activity, DM Influence [2]: competes 1:1
Ki [2, 6]: 9 µM
Spectral Response Induced in Oxidized CcO [4]: red shift of a3^3+
Magnitude ε of the spectral shift induced in oxidized CcO ([4]; 13 mM DM): 25 mM^−1⋅cm^−1

C[C@]12CC[C@H]3[C@@H](CCC4=CC(=O)CC[C@@H]43)[C@@H]1CCC2=O [norandrostenedione]
IC50 (human endothelial cells): 500 µM

N[C@@H](Cc1cc(I)c(Oc2ccc(O)c(I)c2)c(I)c1)C(=O)O [thyroid hormone T3]
effect on the activity of CcO from R. sphaeroides (CcO from R. sphaeroides): inhibited the enzyme; also recorded: strongly inhibited

CC(=O)[C@H]1CC[C@H]2[C@@H]3CCC4=CC(=O)CC[C@]4(C)[C@H]3CC[C@]12C [Progesterone]
Inhibition of CcO Peroxidase Activity [3]: no
Inhibition of CcO Oxidase Activity, DM Influence [2]: competes 1:1
Ki [2, 6]: 120 µM

C[C@]12CC[C@@H]3c4ccc(OC(=O)c5ccccc5)cc4CC[C@H]3[C@@H]1CC[C@@H]2O [estradiol-3-benzoate]
Inhibition of CcO Peroxidase Activity [3]: no
Inhibition of CcO Peroxidase Activity ([3]; listed as estradiol): do not inhibit
inhibition of R. sphaeroides CcO (R. sphaeroides CcO): inhibition
effect on the activity of CcO from R. sphaeroides (CcO from R. sphaeroides): did not reveal inhibition
rate constant of heme a3 reduction, rapid phase ([5]; 0.2 mM estradiol, 3 µM CcO, 20 mM dithionite, 5 mM RuAm): 67.75 s⁻¹
rate constant of heme a3 reduction, slow phase ([5]; 0.2 mM estradiol): 5.3 s⁻¹
decrease of the rate constants of both phases of heme a3 reduction ([5]; 0.5 mM estradiol): ca. 60%
rate constant of heme a3 reduction, slow phase ([5]; 0.5 mM estradiol): 2.5 s⁻¹
rate constant of heme a3 reduction, rapid phase ([5]; 0.5 mM estradiol): 39.6 s⁻¹
inhibition of oxygen consumption (oxidase activity) ([2]; 0.5 mM estradiol, 1 mM DM): approximately by half; also recorded: does inhibit
inhibition of CcO oxidase activity (fold) ([2]; 2 mM estradiol, 1 mM DM): ~4 fold
inhibition of CcO oxidase activity ([2]; 2 mM estradiol, 20 mM DM): only a slight inhibition
Inhibition of CcO Oxidase Activity, DM Influence [2]: competes 1:1
slope tangent of Ki(app) vs [DM], ratio Ki:Kc [2]: 0.25
Ki [2, 6]: 370 µM
time for the spectral shift to reach completion after hormone addition ([4]; 1 mM estradiol, 13 mM DM, oxidized CcO): 3 to 5 min
magnitude of spectral shift relative to the effect induced by cyanide ([4]; 1 mM estradiol, cyanide effect from ref 20): ca. 1/5
Spectral Response Induced in Oxidized CcO [4]: red shift of a3^3+
Magnitude ε of the spectral shift induced in oxidized CcO ([4]; 13 mM DM): 10 mM^−1⋅cm^−1
effect on the absorption spectrum of the reduced CcO ([4]; reduced CcO): No effect
